In ChEMBL document CHEMBL1143815, “Spread of extended-spectrum beta-lactamase CTX-M-producing escherichia coli clinical isolates in community and nosocomial environments in Portugal” (2007):
≈ marks a conversion by molar mass, not a printed value.

Tests used:
Format in all cases: functional
Escherichia coli [1] = experiment: Antibacterial activity against Escherichia coli INSRA5776 isolates expressing CTX-M-14 and TEM-1B enzymes by agar dilution method
Escherichia coli [2] = experiment: Antibacterial activity against Escherichia coli DH5 alpha-URA5905 isolates expressing CTX-M-15 and TEM-1B enzymes by agar dilution method
Escherichia coli [3] = experiment: Antibacterial activity against Escherichia coli DH5 alpha isolates by agar dilution method
Escherichia coli [4] = experiment: Antibacterial activity against CTX-M group 1 enzyme producing Escherichia coli isolates by broth microdilution method
Escherichia coli [5] = experiment: Antibacterial activity against CTX-M group 9 enzyme producing Escherichia coli isolates by broth microdilution method
Escherichia coli [6] = experiment: Antibacterial activity against Escherichia coli INSRA5905 isolates expressing CTX-M-15 and TEM-1B enzymes by agar dilution method
Escherichia coli [7] = experiment: Antibacterial activity against Escherichia coli DH5 alpha-URA5924 isolates expressing CTX-M-32 by agar dilution method
Escherichia coli [8] = experiment: Antibacterial activity against CTX-M group 1 enzyme producing Escherichia coli isolates assessed as percent nonsusceptible isolates by broth microdilution method
Escherichia coli [9] = experiment: Antibacterial activity against Escherichia coli INSRA5924 isolates expressing CTX-M-32 and TEM-1B enzymes by agar dilution method
Escherichia coli [10] = experiment: Antibacterial activity against Escherichia coli DH5 alpha-URA5776 isolates expressing CTX-M-14 enzyme by agar dilution method
Escherichia coli [11] = experiment: Antibacterial activity against CTX-M group 9 enzyme producing Escherichia coli isolates assessed as percent nonsusceptible isolates by broth microdilution method
Escherichia coli [12] = experiment: Antibacterial activity against CTX-M group 1 enzyme producing Escherichia coli isolates assessed as percent resistant isolates by broth microdilution method
Escherichia coli [13] = experiment: Antibacterial activity against CTX-M group 9 enzyme producing Escherichia coli isolates assessed as percent resistant isolates by broth microdilution method

Compound | MIC (Escherichia coli [1]) [µg/mL] | MIC (Escherichia coli [2]) [µg/mL] | MIC (Escherichia coli [3]) [µg/mL] | MIC50 (Escherichia coli [4]) [µg/mL] | MIC90 (Escherichia coli [4]) [µg/mL] | MIC50 (Escherichia coli [5]) [µg/mL] | MIC90 (Escherichia coli [5]) [µg/mL] | MIC (Escherichia coli [6]) [µg/mL] | MIC (Escherichia coli [7]) [µg/mL] | Activity (Escherichia coli [8]) [%] | MIC (Escherichia coli [9]) [µg/mL] | MIC (Escherichia coli [10]) [µg/mL] | Activity (Escherichia coli [11]) [%] | Activity (Escherichia coli [12]) [%] | Activity (Escherichia coli [13]) [%]
CC(=O)OCC1=C(C(=O)O)N2C(=O)[C@@H](NC(=O)Cc3cccs3)[C@H]2SC1 [CEPHALOTHIN] | > 1020 | > 1020 | 8 (≈ 20.2 µM) | > 16 | > 16 | > 16 | > 16 | > 1020 | > 1020 | 100 | > 1020 | 1020 (≈ 2580 µM) | 100 |  | 
NC[C@H]1O[C@H](O[C@H]2[C@H](O)[C@@H](O[C@H]3O[C@H](CO)[C@@H](O)[C@H](N)[C@H]3O)[C@H](N)C[C@@H]2N)[C@H](N)C[C@@H]1O [TOBRAMYCIN] |  |  |  | > 8 | > 8 | ≤ 2 | > 8 |  |  | 95 |  |  | 22 | 94 | 
CCn1cc(C(=O)O)c(=O)c2cc(F)c(N3CCNCC3)cc21 [NORFLOXACIN] |  |  |  | > 8 | > 8 | ≤ 2 | > 8 |  |  | 98 |  |  | 33 | 98 | 33
CO/N=C(\C(=O)N[C@@H]1C(=O)N2C(C(=O)O)=C(CSc3nc(=O)c(O)nn3C)CS[C@H]12)c1csc(N)n1 (stereo in doubt) [CEFTRIAXONE] | 32 (≈ 57.7 µM) | 256 (≈ 462 µM) | 0.03 (≈ 0.0541 µM) | > 32 | > 32 | > 32 | > 32 | > 512 | 64 (≈ 115 µM) | 100 | 256 (≈ 462 µM) | 32 (≈ 57.7 µM) | 100 |  | 
Cc1nnc(SCC2=C(C(=O)O)N3C(=O)[C@@H](NC(=O)Cn4cnnn4)[C@H]3SC2)s1 [CEFAZOLIN] |  |  |  | > 16 | > 16 | > 16 | > 16 |  |  | 100 |  |  | 100 |  | 
C[C@H]1[C@H](NC(=O)/C(=N\OC(C)(C)C(=O)O)c2csc(N)n2)C(=O)N1S(=O)(=O)O [AZTREONAM] | 8 (≈ 18.4 µM) | 64 (≈ 147 µM) |  | > 16 | > 16 | 8 (≈ 18.4 µM) | > 16 | 128 (≈ 294 µM) | 64 (≈ 147 µM) | 100 | 64 (≈ 147 µM) | 8 (≈ 18.4 µM) | 22 | 100 | 11
CO/N=C(\C(=O)N[C@@H]1C(=O)N2C(C(=O)O)=C(COC(C)=O)CS[C@H]12)c1csc(N)n1 (stereo in doubt) [CEFOTAXIME] | 32 (≈ 70.3 µM) | 512 (≈ 1120 µM) | 0.06 (≈ 0.132 µM) | > 32 | > 32 | > 32 | > 32 | 512 (≈ 1120 µM) | 128 (≈ 281 µM) | 100 | 256 (≈ 562 µM) | 32 (≈ 70.3 µM) | 100 | 99 | 
CO/N=C(\C(=O)N[C@@H]1C(=O)N2C(C(=O)O)=C(COC(N)=O)CS[C@H]12)c1ccco1 [CEFUROXIME] | > 256 | > 256 | 4 (≈ 9.43 µM) | > 16 | > 16 | > 16 | > 16 | > 256 | > 256 | 100 | > 256 | > 256 | 100 |  | 
CCN1CCN(C(=O)N[C@@H](C(=O)N[C@@H]2C(=O)N3C(C(=O)O)=C(CSc4nnnn4C)CS[C@H]23)c2ccc(O)cc2)C(=O)C1=O [CEFOPERAZONE] | 256 (≈ 396 µM) | 256 (≈ 396 µM) | ≤ 0.25 |  |  |  |  | > 512 | 64 (≈ 99.1 µM) |  | 256 (≈ 396 µM) | 16 (≈ 24.8 µM) |  |  | 
C[C@@H](O)[C@H]1C(=O)N2C(C(=O)O)=C(S[C@@H]3CN[C@H](C(=O)N(C)C)C3)[C@H](C)[C@H]12 [MEROPENEM] |  |  |  | ≤ 1 | ≤ 1 | ≤ 1 | ≤ 1 |  |  | 0 |  |  | 0 |  | 
CC1(C)S[C@@H]2[C@H](/N=C\N3CCCCCC3)C(=O)N2[C@H]1C(=O)O | 1 (≈ 3.07 µM) | 2 (≈ 6.15 µM) | 0.125 (≈ 0.384 µM) |  |  |  |  | 2 (≈ 6.15 µM) | 0.5 (≈ 1.54 µM) |  | 2 (≈ 6.15 µM) | 0.5 (≈ 1.54 µM) |  |  | 
CC1(C)S[C@@H]2[C@H](NC(=O)[C@H](N)c3ccccc3)C(=O)N2[C@H]1C(=O)O [AMPICILLIN] |  |  |  | > 16 | > 16 | > 16 | > 16 |  |  | 100 |  |  | 100 |  | 
CC1COc2c(N3CCN(C)CC3)c(F)cc3c(=O)c(C(=O)O)cn1c23 (configuration not stated) [OFLOXACIN] |  |  |  | > 4 | > 4 | ≤ 0.5 | > 4 |  |  | 98 |  |  | 33 |  | 
O=C(O)c1cn(C2CC2)c2cc(N3CCNCC3)c(F)cc2c1=O [CIPROFLOXACIN] | 256 (≈ 773 µM) | ≤ 0.125 | ≤ 0.125 | > 2 | > 2 | ≤ 0.5 | > 2 | 1020 (≈ 3090 µM) | ≤ 0.125 | 98 |  | ≤ 0.125 | 33 |  | 
CO/N=C(\C(=O)N[C@@H]1C(=O)N2C(C(=O)[O-])=C(C[N+]3(C)CCCC3)CS[C@H]12)c1csc(N)n1 | 8 (≈ 16.6 µM) | 8 (≈ 16.6 µM) | 0.03 (≈ 0.0624 µM) | > 16 | > 16 | > 16 | > 16 |  | 4 (≈ 8.32 µM) |  | 16 (≈ 33.3 µM) | 2 (≈ 4.16 µM) | 100 |  | 78
CCN1CCN(C(=O)N[C@@H](C(=O)N[C@@H]2C(=O)N3[C@@H]2SC(C)(C)[C@@H]3C(=O)O)c2ccccc2)C(=O)C1=O [PIPERACILLIN] | 256 (≈ 495 µM) | 512 (≈ 989 µM) | 2 (≈ 3.86 µM) | > 64 | > 64 | > 64 | > 64 | > 512 | 512 (≈ 989 µM) | 100 | > 512 | 256 (≈ 495 µM) | 100 |  | 
CC1(C)S[C@@H]2[C@H](NC(=O)C(C(=O)O)c3ccsc3)C(=O)N2[C@H]1C(=O)O (single isomer, unassigned) [TICARCILLIN] | > 4100 | > 4100 | 4 (≈ 10.4 µM) | > 64 | > 64 | > 64 | > 64 | > 4100 | > 4100 | 100 | > 4100 | > 4100 | 100 |  | 
CC(C)(O/N=C(\C(=O)N[C@@H]1C(=O)N2C(C(=O)[O-])=C(C[n+]3ccccc3)CS[C@H]12)c1csc(N)n1)C(=O)O [CEFTAZIDIME] | 2 (≈ 3.66 µM) | 64 (≈ 117 µM) | 0.25 (≈ 0.457 µM) | > 16 | > 16 | 2 (≈ 3.66 µM) | > 16 | 128 (≈ 234 µM) | 16 (≈ 29.3 µM) | 99 | 16 (≈ 29.3 µM) | 1 (≈ 1.83 µM) | 11 | 98 | 11
COc1cc(Cc2cnc(N)nc2N)cc(OC)c1OC [TRIMETHOPRIM] | 64 (≈ 220 µM) | ≤ 0.125 | ≤ 0.125 |  |  |  |  | ≤ 0.125 | ≤ 0.125 |  | 0.25 (≈ 0.861 µM) | > 64 |  |  | 
CC1(C)S[C@@H]2[C@H](NC(=O)[C@H](N)c3ccc(O)cc3)C(=O)N2[C@H]1C(=O)O [AMOXICILLIN] | > 4100 | > 4100 | 8 (≈ 21.9 µM) |  |  |  |  | > 4100 | > 4100 |  | > 4100 | > 4100 |  |  | 
CO[C@@]1(NC(=O)Cc2cccs2)C(=O)N2C(C(=O)O)=C(COC(N)=O)CS[C@@H]21 [CEFOXITIN] | 32 (≈ 74.9 µM) | 4 (≈ 9.36 µM) | 4 (≈ 9.36 µM) | ≤ 4 | 8 (≈ 18.7 µM) | ≤ 4 | > 16 | 16 (≈ 37.4 µM) | 8 (≈ 18.7 µM) | 5 | 16 (≈ 37.4 µM) | 4 (≈ 9.36 µM) | 11 | 1 | 0
C[C@@H](O)[C@H]1C(=O)N2C(C(=O)O)=C(SCCNC=N)C[C@H]12 [IMIPENEM ANHYDROUS] | ≤ 0.06 |  |  | ≤ 0.5 | ≤ 0.5 | ≤ 0.5 | ≤ 0.5 | 0.25 (≈ 0.835 µM) | 0.125 (≈ 0.418 µM) | 0 | 0.125 (≈ 0.418 µM) | 0.5 (≈ 1.67 µM) | 0 |  | 
NCC[C@H](O)C(=O)N[C@@H]1C[C@H](N)[C@@H](O[C@H]2O[C@H](CN)[C@@H](O)[C@H](O)[C@H]2O)[C@H](O)[C@H]1O[C@H]1O[C@H](CO)[C@@H](O)[C@H](N)[C@H]1O [AMIKACIN] |  |  |  | ≤ 8 | 16 (≈ 27.3 µM) | ≤ 8 | 16 (≈ 27.3 µM) |  |  | 7 |  |  | 0 | 4 | 
